Measurements: patent publication US20100233231A1, “USE OF CRYOGENIC PROCESSING TO OBTAIN A SUBSTANTIALLY-THICKENED FORMULATION” (priority 2009, published 2010)

Test: Consistency and homogeneity of the formulation after cryo-processing (observation)
Format: physicochemical
Conditions: 8 cycles
Procedure: Fish oil was cured to a film with the use of heat.
It was processed in a Spex Certiprep cryogrinder for 8 cycles, each cycle lasting 2.0 minutes and with a 2.0 minute between-cycle cool down to maintain the system at cryogenic temperatures.

Q: With `CCCCCCCCCCCCCCCCO` [Cetyl Alcohol] as the compound, how does the “consistency of resulting formulation” value (Example 7: 30% in 70% fish oil 30% Vitamin E, 30 impacts per second) read?
A: highly viscous and smooth

Q: For `O=C(CO)[C@@H](O)[C@H](O)[C@H](O)CO` [Fructose], which “consistency of resulting formulation” value (Example 5: 40% in 100% fish oil, 20 impacts per second) is on record?
A: highly viscous upon standing and was extremely shear thinning

Q: With `CO[C@H]1C[C@@H]2CC[C@@H](C)[C@@](O)(O2)C(=O)C(=O)N2CCCC[C@H]2C(=O)O[C@H]([C@H](C)C[C@@H]2CC[C@@H](O)[C@H](OC)C2)CC[C@H](C)/C=C(\C)[C@@H](O)[C@@H](OC)C(=O)[C@H](C)C[C@H](C)/C=C/C=C/C=C/1C` [Rapamycin derivative] as the compound, how does the “consistency of resulting formulation” value (Example 2: 31% in 70% fish oil 30% vitamin E, 20 impacts per second) read?
A: highly viscous and shear thinning with small crystals evident throughout the sample
